# Measured values as given in patent US10765651B2, “Co-crystals of substituted glycine and uses thereof” (SyneuRx International (Taiwan) Corp., priority 2017, dated 2020).
# Like-named read-outs stand apart in the source and are kept apart here.
# Experiments:
# [1] = Hygroscopicity test, condition 3 (dynamic vapor sorption, 0 to 90 to 0% RH); assay type: physicochemical; conditions: DVS, 25° C.
# Experimental: Measurement were taken from 0 to 90 to 0% RH at 25° C. with 10% RH per step with equilibration set to dm/dt+0.01%/min for 10 min or 180 min/step.
# [2] = 70-75% RH, room temperature, 3 days
# [3] = Hygroscopicity test, condition 2 (humidity chamber, weight change); assay type: physicochemical; conditions: for Weight change (%): dry before (change on drying to 0 hr weight)
# [4] = DVS, 0 to 70 to 0% RH, 25° C.
# Experimental: Measurement were taken from 0 to 70 to 0% RH at 25° C. with 10% RH per step with equilibration set to dm/dt+0.01%/min for 10 min or 180 min/step.
# [5] = Hygroscopicity test of fumaric acid co-crystals under ambient conditions; assay type: physicochemical
# Experimental: 0.1 to 0.5 g of each of 1:1, 2:1, 3:1, and 6:1 N-methylglycine co-crystals were placed in the vial under the ambient conditions. The weight changes at various time points of each co-crystal were measured and illustrated in Table 4 below.
# [6] = 30° C., 75% RH, 72 hr, listed as 2:1 N-methylglycine:L-tartaric acid co-crystal
# [7] = 30° C., 75% RH, 5 hr, listed as 1:1 N-methylglycine:DL-tartaric acid co-crystal
Change In Mass (%) ([1]; RH 70%),Change In Mass (%) ([1]; RH 90%),"Weight ([3]; 30° C., 75% RH, 0 hr) [g]","Weight ([3]; 30° C., 75% RH, 1 hr) [g]","Weight change (%), water absorbed ([3]; 30° C., 75% RH, 1 hr)","Weight ([3]; 30° C., 75% RH, 2 hr) [g]","Weight change (%), water absorbed ([3]; 30° C., 75% RH, 2 hr)","Weight ([3]; 30° C., 75% RH, 3 hr) [g]","Weight change (%), water absorbed ([3]; 30° C., 75% RH, 3 hr)","Weight ([3]; 30° C., 75% RH, 5 hr) [g]","Weight change (%), water absorbed ([3]; 30° C., 75% RH, 5 hr)","Weight ([3]; 30° C., 75% RH, 24 hr) [g]","Weight change (%), water absorbed ([3]; 30° C., 75% RH, 24 hr)","Weight ([3]; 30° C., 75% RH, 48 hr) [g]","Weight change (%), water absorbed ([3]; 30° C., 75% RH, 48 hr)","Weight ([3]; 30° C., 75% RH, 72 hr) [g]","Weight change (%), water absorbed ([3]; 30° C., 75% RH, 72 hr)",Outward (appearance) ([3]; dry before),Weight ([3]; dry before) [g],Weight change (%) [3],Compound,other results
0.18,10.74,–,–,–,–,–,–,–,–,–,–,–,–,–,–,–,–,–,–,CNCC(=O)O.CNCC(=O)O.O=C(O)C(O)C(O)C(=O)O [N-methylglycine:L-tartaric acid 2:1 co-crystal],–
–,–,0.1432,0.1437,(+0.3%),0.1437,(+0.3%),0.1439,(+0.4%),0.1439,(+0.4%),0.1440,(+0.5%),0.1440,(+0.5%),0.1441,(+0.6%),White,0.1434,(−0.1%),"CNCC(=O)O.O=C(O)C(O)C(O)C(=O)O [N-MG/L-TA = 1/1, N-methylglycine:L-tartaric acid (1:1) co-crystal]","Appearance after exposure to high humidity [2]: remained as fine white powder; Hygroscopicity comparison [2]: much less hygroscopic than the 2:1 co-crystal; Weight change (%), water absorbed ([3]; 30° C., 75% RH, 5 hr, listed as N-methylglycine:L-tartaric acid co-crystal): 0.4%; Outward (appearance) ([3]; 30° C., 75% RH, 72 hr): remained as white powder; Weight change (%), water absorbed ([3]; 30° C., 75% RH, 72 hr, listed as 1:1 N-methylglycine:L-tartaric acid co-crystal): 0.6%; Hygroscopicity comparison ([3]; 30° C., 75% RH, listed as 1:1 N-methylglycine:L-tartaric acid co-crystal): much less hygroscopic than 2:1 N-methylglycine:L-tartaric acid co-crystal; Hygroscopicity comparison [4]: less hygroscopic than N-methylgycine or L-tartaric acid individually"
0.31,14.27,–,–,–,–,–,–,–,–,–,–,–,–,–,–,–,–,–,–,"CNCC(=O)O.CNCC(=O)O.O=C(O)C(O)C(O)C(=O)O [N-MG/D-TA = 2/1, N-methylglycine:D-tartaric acid 2:1 co-crystal]",Change In Mass (%) ([1]; RH 0%): 0.00%; Change In Mass (%) ([1]; RH 10%): 0.02%; Change In Mass (%) ([1]; RH 20%): 0.04%; Change In Mass (%) ([1]; RH 30%): 0.07%; Change In Mass (%) ([1]; RH 40%): 0.10%; Change In Mass (%) ([1]; RH 50%): 0.15%; Change In Mass (%) ([1]; RH 60%): 0.20%; Change In Mass (%) ([1]; RH 80%): 0.60%
–,–,–,–,–,–,–,–,–,–,–,–,–,–,–,–,–,–,–,–,"CNCC(=O)O.CNCC(=O)O.CNCC(=O)O.O=C(O)/C=C/C(=O)O [N-MG/FA = 3/1, N-methylglycine:fumaric acid (3:1 co-crystal)]",Change In Mass (%) ([5]; 15 hr): 18.29%; Change In Mass (%) ([5]; 21 hr): 20.78%; Change In Mass (%) ([5]; 45 hr): 26.13%; Change In Mass (%) ([5]; 48 hr): 26.37%; Change In Mass (%) ([5]; 64 hr): 29.22%
–,–,–,–,–,–,–,–,–,–,–,–,–,–,–,–,–,–,–,–,"CNCC(=O)O.CNCC(=O)O.O=C(O)/C=C/C(=O)O [N-MG/FA = 2/1, N-methylglycine:fumaric acid (2:1 co-crystal)]",Change In Mass (%) ([5]; 15 hr): 5.81%; Change In Mass (%) ([5]; 21 hr): 6.29%; Change In Mass (%) ([5]; 45 hr): 7.08%; Change In Mass (%) ([5]; 48 hr): 7.12%; Change In Mass (%) ([5]; 64 hr): 7.49%
3.12,30.35,–,–,–,–,–,–,–,–,–,–,–,–,–,–,–,–,–,–,CNCC(=O)O.CNCC(=O)O.O=C(O)C(O)C(O)C(=O)O (racemic) [N-methylglycine:DL-tartaric acid 2:1 co-crystal],–
–,–,–,–,–,–,–,–,–,–,–,–,–,–,–,–,–,–,–,–,"CNCC(=O)O.CNCC(=O)O.CNCC(=O)O.CNCC(=O)O.CNCC(=O)O.CNCC(=O)O.O=C(O)/C=C/C(=O)O [N-MG/FA = 6/1, N-methylglycine:fumaric acid (6:1 co-crystal)]",Change In Mass (%) ([5]; 15 hr): 18.30%; Change In Mass (%) ([5]; 21 hr): 25.14%; Change In Mass (%) ([5]; 45 hr): 47.59%; Change In Mass (%) ([5]; 48 hr): 48.84%; Change In Mass (%) ([5]; 64 hr): 56.36%
0.18,10.74,0.1455,0.1462,(+0.4%),0.1463,(+0.5%),0.1464,(+0.6%),0.1465,(+0.7%),0.1465,(+0.7%),0.1465,(+0.7%),0.1471,(+1.1%),White,0.1457,(−0.1%),"CNCC(=O)O.CNCC(=O)O.O=C(O)C(O)C(O)C(=O)O [N-MG/L-TA = 2/1, N-methylglycine:L-tartaric acid 2:1 co-crystal]","Appearance after exposure to high humidity [2]: turned into moisturized and somewhat sticky white solid; Outward (appearance) ([3]; 30° C., 75% RH, 72 hr): Partial; Outward (appearance) [3, 6]: turned into a partial liquid; Weight change (%), water absorbed [3, 6]: 1.1%; Change In Mass (%) ([1]; RH 0%): 0.00%; Change In Mass (%) ([1]; RH 10%): 0.01%; Change In Mass (%) ([1]; RH 20%): 0.03%; Change In Mass (%) ([1]; RH 30%): 0.05%; Change In Mass (%) ([1]; RH 40%): 0.07%; Change In Mass (%) ([1]; RH 50%): 0.09%; Change In Mass (%) ([1]; RH 60%): 0.13%; Change In Mass (%) ([1]; RH 80%): 0.32%"
3.12,30.35,0.1628,0.1695,(+4.1%),0.1768,(+8.6%),0.1816,(+11.5%),0.1877,(+15.3%),0.2374,(+45.8%),0.2423,(+48.8%),0.2441,(+49.9%),White,0.1628,(−0%),"CNCC(=O)O.CNCC(=O)O.O=C(O)C(O)C(O)C(=O)O (racemic) [N-MG/DL-TA = 2/1, N-methylglycine:DL-tartaric acid 2:1 co-crystal]","Outward (appearance) ([3]; 30° C., 75% RH, 2 hr): Wet; Outward (appearance) ([3]; 30° C., 75% RH, 5 hr): Partial; Outward (appearance) ([3]; 30° C., 75% RH, 24 hr): Liquid; Change In Mass (%) ([1]; RH 0%): 0.00%; Change In Mass (%) ([1]; RH 10%): 0.15%; Change In Mass (%) ([1]; RH 20%): 0.21%; Change In Mass (%) ([1]; RH 30%): 0.26%; Change In Mass (%) ([1]; RH 40%): 0.77%; Change In Mass (%) ([1]; RH 60%): 2.03%; Change In Mass (%) ([1]; RH 80%): 8.12%"
–,–,0.1302,0.1349,(+3.6%),0.1399,(+7.4%),0.1469,(+12.8%),0.1545,(+18.7%),0.1819,(+39.7%),0.1819,(+39.7%),0.1823,(+40.0%),White,0.1305,(−0.2%),"CNCC(=O)O.O=C(O)C(O)C(O)C(=O)O (racemic) [N-MG/DL-TA = 1/1, N-methylglycine:DL-tartaric acid 1:1 co-crystal]","Outward (appearance) ([3]; 30° C., 75% RH, 2 hr): Wet; Outward (appearance) ([3]; 30° C., 75% RH, 5 hr): Partial; Outward (appearance) [3, 7]: started to turn into a partial liquid; Weight change (%), water absorbed [3, 7]: 18.7%; Outward (appearance) ([3]; 30° C., 75% RH, 24 hr): 50%; Hygroscopicity comparison ([3]; 30° C., 75% RH, listed as 1:1 N-methylglycine:DL-tartaric acid co-crystal): much less hygroscopic than 2:1 N-methylglycine:DL-tartaric acid co-crystal"
0.31,14.27,–,–,–,–,–,–,–,–,–,–,–,–,–,–,–,–,–,–,CNCC(=O)O.CNCC(=O)O.O=C(O)C(O)C(O)C(=O)O [N-methylglycine:D-tartaric acid 2:1 co-crystal],–
–,–,–,–,–,–,–,–,–,–,–,–,–,–,–,–,–,–,–,–,"CNCC(=O)O.O=C(O)/C=C/C(=O)O [N-MG/FA = 1/1, N-methylglycine:fumaric acid (1:1 co-crystal)]","Hygroscopicity comparison [5]: much less hygroscopic than the 2:1, 3:1, and 6:1 co-crystals; Change In Mass (%) ([5]; 1 hr): 0.48%; Change In Mass (%) ([5]; 2 hr): 0.67%; Change In Mass (%) ([5]; 3 hr): 0.57%; Change In Mass (%) ([5]; 4 hr): 0.57%; Change In Mass (%) ([5]; 5 hr): 0.57%; Change In Mass (%) ([5]; 21 hr): 0.96%; Change In Mass (%) ([5]; 24 hr): 0.96%; Change In Mass (%) ([5]; 45 hr): 0.96%; Change In Mass (%) ([5]; 48 hr): 0.96%; Change In Mass (%) ([5]; 96 hr): 0.96%"
